Where “and” joins values, the source holds several entries; their conditions need not be identical. Equal entries are not always repeated.
Molecular target: T1, chymase (Golden hamster, UniProt A0A1U7QTH6)
T1 sequence (A0A1U7QTH6 whole entry): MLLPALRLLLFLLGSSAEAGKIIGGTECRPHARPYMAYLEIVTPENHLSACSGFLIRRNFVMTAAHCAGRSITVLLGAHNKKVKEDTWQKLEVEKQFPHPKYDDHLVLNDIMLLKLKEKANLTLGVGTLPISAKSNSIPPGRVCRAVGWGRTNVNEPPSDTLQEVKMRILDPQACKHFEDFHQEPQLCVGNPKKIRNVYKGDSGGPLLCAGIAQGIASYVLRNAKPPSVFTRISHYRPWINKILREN
Assay: Enzymatic Chymase Assay
Settings: pH 7.5

| SMILES | IC50 |
| --- | --- |
| Cn1c(=O)oc2cc(-n3cc(C(N)=O)c(=O)n([C@@H]4CCc5c4cccc5C(F)(F)F)c3=O)ccc21 [US9695131, 41] | 0.012 µM |
| Cn1c(=O)oc2cc(-n3cc(-c4nnn[nH]4)c(=O)n([C@@H]4CCc5c4cccc5C(F)(F)F)c3=O)ccc21 [US9695131, 14] | 0.0035 µM |
| Cc1c(Cn2c(=O)c(C(=O)NCC#N)cn(-c3ccc(N4CCNC4=O)cc3)c2=O)cccc1C(F)(F)F [US9695131, 55] | 0.238 µM |
| COc1ccc(-n2cc(-c3nnn[nH]3)c(=O)n(Cc3cccc(C(F)(F)F)c3Cl)c2=O)cc1 [US9695131, 26] | 0.044 µM |
| CCOC(=O)C(C)(C)NC(=O)c1cn(-c2ccc3c(c2)n(C)c(=O)n3C)c(=O)n(Cc2cccc(C(F)(F)F)c2C)c1=O [US9695131, 48] | 0.054 µM |
| Cc1c(Cn2c(=O)c(C(=O)NC(CO)C(=O)O)cn(-c3ccc(N4CCNC4=O)cc3)c2=O)cccc1C(F)(F)F (centres undefined) [US9695131, 61] | 0.017 µM |
| Cc1c(Cn2c(=O)c(C(=O)NC(C)(C)C(=O)O)cn(-c3ccc4c(c3)n(C)c(=O)n4C)c2=O)cccc1C(F)(F)F [US9695131, 49] | 0.0036 µM |
| Cn1c(=O)sc2cc(-n3cc(C#N)c(=O)n(C4CCc5c(Cl)cccc54)c3=O)ccc21 (racemic) [US9695131, 8] | 0.053 µM |
| COC(=O)CCNC(=O)c1cn(-c2ccc(N3CCNC3=O)cc2)c(=O)n(Cc2cccc(C(F)(F)F)c2C)c1=O [US9695131, 53] | 0.18 µM |
| Cc1c(Cn2c(=O)c(-c3nnn[nH]3)cn(-c3ccc4c(c3)n(C)c(=O)n4C)c2=O)cccc1C(F)(F)F [US9695131, 19] | 0.0058 µM |
| Cn1c(=O)oc2cc(-n3cc(C(=O)NC#N)c(=O)n([C@@H]4CCc5c4cccc5C(F)(F)F)c3=O)ccc21 [US9695131, 63] | 0.0026 µM |
| Cn1c(=O)n(C)c2cc(-n3cc(C#N)c(=O)n(C4CCc5c(Cl)cccc54)c3=O)ccc21 (racemic) [US9695131, 7] | 0.037 µM |
| COc1ccc(-n2cc(C(=O)NCCC(=O)O)c(=O)n(Cc3cccc(Cl)c3Cl)c2=O)cc1 [US9695131, 59] | 0.914 µM |
| Cc1c(Cn2c(=O)c(C(=O)NC(C)C(=O)O)cn(-c3ccc4c(c3)ncn4C)c2=O)cccc1C(F)(F)F (racemic) [US9695131, 57] | 0.019 µM |
| Cc1c(Cn2c(=O)c(-c3nnn[nH]3)cn(-c3ccc(N4CCOC4=O)cc3)c2=O)cccc1C(F)(F)F [US9695131, 25] | 0.03 µM |
| COC(=O)C(COC(C)(C)C)NC(=O)c1cn(-c2ccc(N3CCNC3=O)cc2)c(=O)n(Cc2cccc(C(F)(F)F)c2C)c1=O (centres undefined) [US9695131, 60] | 1.59 µM |
| Cc1c(Cn2c(=O)c(-c3nnn[nH]3)cn(-c3ccc(N4CCNC4=O)cc3)c2=O)cccc1C(F)(F)F [US9695131, 21] | 0.032 µM |
| Cc1c(Cn2c(=O)c(C#N)cn(-c3ccc(N4CCOC4=O)cc3)c2=O)cccc1C(F)(F)F [US9695131, 5] | 0.029 µM |
| COc1ccc(-n2cc(-c3noc(=O)[nH]3)c(=O)n(Cc3cccc(C(F)(F)F)c3C)c2=O)cc1 [US9695131, 37] | 0.076 µM |
| COc1ccc(-n2cc(-c3nnn[nH]3)c(=O)n(Cc3cccc(C(F)(F)F)c3C)c2=O)cc1OC [US9695131, 20] | 0.022 µM |
| Cc1c(Cn2c(=O)c(C(=O)NC(C)C(=O)O)cn(-c3ccc4c(c3)C(C)(C)C(=O)N4C)c2=O)cccc1C(F)(F)F (racemic) [US9695131, 47] | 0.0042 µM |
| Cn1c(=O)oc2cc(-n3cc(-c4nnn[nH]4)c(=O)n(C4CCCc5c(Cl)cccc54)c3=O)ccc21 (racemic) [US9695131, 30] | 0.013 µM |

| SMILES | IC50 |
| --- | --- |
| COc1ccc(-n2cc(-c3noc(=O)[nH]3)c(=O)n(Cc3cccc(C(F)(F)F)c3C)c2=O)cc1OC [US9695131, 36] | 0.019 µM |
| Cn1c(=O)oc2cc(-n3cc(-c4noc(=O)[nH]4)c(=O)n([C@@H]4CCc5c4cccc5C(F)(F)F)c3=O)ccc21 [US9695131, 38] | 0.0081 µM |
| Cc1c(Cn2c(=O)c(C#N)cn(-c3ccc4c(c3)n(C)c(=O)n4C)c2=O)cccc1C(F)(F)F [US9695131, 6] | 0.0066 µM |
| Cn1c(=O)sc2cc(-n3cc(C#N)c(=O)n([C@@H]4CCc5c4cccc5C(F)(F)F)c3=O)ccc21 [US9695131, 3] | 0.0087 µM |
| Cc1c(Cn2c(=O)c(-c3nsc(=O)[nH]3)cn(-c3ccc(N4CCOC4=O)cc3)c2=O)cccc1C(F)(F)F [US9695131, 39] | 0.016 µM |
| Cn1c(=O)sc2cc(-n3cc(-c4nnn[nH]4)c(=O)n(C4CCc5c(Cl)cccc54)c3=O)ccc21 (racemic) [US9695131, 23] | 0.0073 µM |
| Cc1c(Cn2c(=O)c(-c3noc(=O)[nH]3)cn(-c3ccc4c(c3)n(C)c(=O)n4C)c2=O)cccc1C(F)(F)F [US9695131, 33] | 0.0049 µM |
| Cc1c(Cn2c(=O)c(C#N)cn(-c3ccc(N4CCNC4=O)cc3)c2=O)cccc1C(F)(F)F [US9695131, 4] | 0.048 µM |
| CCOC(=O)C1(NC(=O)c2cn(-c3ccc4c(c3)n(C)c(=O)n4C)c(=O)n(Cc3cccc(C(F)(F)F)c3C)c2=O)CCC1 [US9695131, 50] | 0.039 µM |
| COc1ccc(-n2cc(-c3nsc(=O)[nH]3)c(=O)n(Cc3cccc(C(F)(F)F)c3C)c2=O)cc1OC [US9695131, 40] | 0.012 µM |
| COc1ccc(-n2cc(C#N)c(=O)n(Cc3cccc(C(F)(F)F)c3C)c2=O)cc1OC [US9695131, 9] | 0.035 µM |
| Cc1c(Cn2c(=O)c(C(=O)NC(C)C(=O)O)cn(-c3ccc(N4CCNC4=O)cc3)c2=O)cccc1C(F)(F)F (racemic) [US9695131, 45] | 0.025 µM |
| COc1ccc(-n2cc(-c3nnn[nH]3)c(=O)n(Cc3cccc(Cl)c3Cl)c2=O)cc1 [US9695131, 27] | 0.13 µM |
| Cn1c(=O)n(C)c2cc(-n3cc(-c4nnn[nH]4)c(=O)n(C4CCc5c(Cl)cccc54)c3=O)ccc21 (centres undefined) [US9695131, 18] | 0.0046 µM and 0.0028 µM |
| Cc1c(C#N)c(=O)n([C@@H]2CCc3c2cccc3C(F)(F)F)c(=O)n1-c1ccc2c(c1)oc(=O)n2C [US9695131, 12] | 0.0076 µM |
| Cc1c(Cn2c(=O)c(-c3noc(=O)[nH]3)cn(-c3ccc(N4CCOC4=O)cc3)c2=O)cccc1C(F)(F)F [US9695131, 35] | 0.036 µM |
| Cn1c(=O)sc2cc(-n3cc(-c4nnn[nH]4)c(=O)n([C@@H]4CCc5c4cccc5C(F)(F)F)c3=O)ccc21 [US9695131, 15] | 0.0028 µM |
| Cn1c(=O)oc2cc(-n3cc(C#N)c(=O)n([C@@H]4CCc5c4cccc5C(F)(F)F)c3=O)ccc21 [US9695131, 2] | 0.018 µM |
| Cn1c(=O)sc2cc(-n3cc(C(N)=O)c(=O)n([C@@H]4CCc5c4cccc5C(F)(F)F)c3=O)ccc21 [US9695131, 42] | 0.0098 µM |
| Cc1c(Cn2c(=O)c(-c3noc(=O)[nH]3)cn(-c3ccc(N4CCNC4=O)cc3)c2=O)cccc1C(F)(F)F [US9695131, 34] | 0.055 µM |
| Cc1c(Cn2c(=O)c(C(N)=O)cn(-c3ccc(N4CCNC4=O)cc3)c2=O)cccc1C(F)(F)F [US9695131, 52] | 0.094 µM |
| Cc1c(Cn2c(=O)c(C(=O)NC3(C(=O)O)CCC3)cn(-c3ccc4c(c3)n(C)c(=O)n4C)c2=O)cccc1C(F)(F)F [US9695131, 51] | 0.003 µM |
